Reference: patent publication US10711036B2, “MALT1 inhibitors and uses thereof” (Cornell University, priority 2015, dated 2020)
Where a SMILES comes first, the peptide text is derived from it. [ ]: non-standard residue; d: D form. The star is where a group is joined. ξ: configuration not given here. Ile(3ξ) = CCC(C)[C@H](N)C(=O)O; Chg = N[C@H](C(=O)O)C1CCCCC1; Phg = N[C@H](C(=O)O)c1ccccc1; NMeV = CN[C@H](C(=O)O)C(C)C; αMeP = C[C@@]1(C(=O)O)CCCN1; Pip = O=C(O)[C@@H]1CCCCN1; 3Abz = Nc1cccc(C(=O)O)c1; ClZ = O=C(OCc1ccccc1Cl)*; Cbz = O=C(OCc1ccccc1)*; Bz = O=C(c1ccccc1)*; CH2F = FC*

Columns and labels:
MALT1 = MALT1 (Homo sapiens (Human), UniProt Q9UDY8); assay: Inhibition constants (Ki) for inhibition of MALT1; assay type: biochemical; conditions: 100 nM MALT1 used for the assay
Procedure: For exemplary compounds of the disclosure, Ki for inhibition of MALT1 was measured (Table E11). A concentration of 100 nM MALT1 was used for the assay.

OCI-LY3 = assay: Cell growth inhibition assay (CellTiter-Glo, 96 hours), OCI-LY3; assay type: cell-based, human; conditions: OCI-LY3 cells, treated at t=0 and t=48 hours, ATP luminescence
Procedure: DLBCL cell lines were grown in exponential growth conditions during the 96 hours of treatment. Cells were treated twice: at t=0 and t=48 hours, and cell viability was determined by ATP quantification using a luminescent method ([…]-GLO, Promega, Madison, Wis.). Cell viability in drug-treated cells was normalized to vehicle controls (fractional viability) and results are given as 1-fractional viability.
Experiments were Performed in Triplicate.

Chain of MALT1 (Q9UDY8 whole entry): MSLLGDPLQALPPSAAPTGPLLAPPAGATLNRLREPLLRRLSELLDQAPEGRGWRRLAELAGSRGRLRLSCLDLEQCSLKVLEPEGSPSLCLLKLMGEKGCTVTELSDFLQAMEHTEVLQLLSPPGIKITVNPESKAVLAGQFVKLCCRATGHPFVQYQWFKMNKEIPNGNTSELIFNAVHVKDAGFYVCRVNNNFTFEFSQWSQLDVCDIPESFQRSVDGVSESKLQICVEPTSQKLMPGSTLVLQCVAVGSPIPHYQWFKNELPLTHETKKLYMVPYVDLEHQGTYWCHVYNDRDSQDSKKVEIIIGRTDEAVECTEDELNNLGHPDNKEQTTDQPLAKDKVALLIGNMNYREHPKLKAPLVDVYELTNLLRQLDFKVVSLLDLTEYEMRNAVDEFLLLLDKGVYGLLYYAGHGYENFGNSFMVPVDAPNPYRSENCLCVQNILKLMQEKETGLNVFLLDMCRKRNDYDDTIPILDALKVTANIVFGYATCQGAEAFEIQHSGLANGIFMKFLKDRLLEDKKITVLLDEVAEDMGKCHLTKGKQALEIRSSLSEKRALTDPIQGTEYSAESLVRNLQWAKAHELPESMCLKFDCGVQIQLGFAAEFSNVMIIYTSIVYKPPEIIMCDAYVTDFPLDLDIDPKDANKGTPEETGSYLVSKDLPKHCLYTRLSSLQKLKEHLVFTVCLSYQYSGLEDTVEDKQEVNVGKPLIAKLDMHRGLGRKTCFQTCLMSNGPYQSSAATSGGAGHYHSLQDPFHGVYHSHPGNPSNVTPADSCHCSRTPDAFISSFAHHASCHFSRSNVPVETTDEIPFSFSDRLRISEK

Row | SMILES | Ki (MALT1) [nM] | GI50 (OCI-LY3; Homo sapiens) [nM] | GI50 (OCI-LY3) [nM]
1 | CC(C)[C@H](NC(=O)c1ccc(Cl)c(C#N)c1)C(=O)N1CCC[C@H]1C(=O)N[C@@H](CCCNC(=N)N)C(=O)CF [Compound 147] | 24 | 550 | 
2 | CC(C)[C@H](NC(=O)c1ccc2cnccc2c1)C(=O)N1CCC[C@H]1C(=O)N[C@@H](CCCNC(=N)N)C(=O)CF [Compound 157] | 59 | 630 | 
3 | CC(C)[C@H](NC(=O)Cc1cccc(Br)c1)C(=O)N1CCC[C@H]1C(=O)N[C@@H](CCCNC(=N)N)C(=O)CF [Compound 118] | 46 | 2910 | 
4 | Cc1nc(C(=O)N[C@H](C(=O)N2CCC[C@H]2C(=O)N[C@@H](CCCNC(=N)N)C(=O)CF)C(C)C)cs1 [Compound 125] |  | 9650 | 
5 | CC(C)[C@H](NC(=O)c1ccc(F)cc1)C(=O)N1CCC[C@H]1C(=O)N[C@H](CCCNC(=N)N)C(=O)CF [Compound 161] | 346 | 910 | 
6 | CC(C)[C@H](NC(=O)c1cccc2ccccc12)C(=O)N1CCC[C@H]1C(=O)N[C@@H](CCCNC(=N)N)C(=O)CF [Compound 153] | 102 | 160 | 
7 | CCC(C)[C@H](NC(=O)OCc1ccccc1)C(=O)N1CCC[C@H]1C(=O)N[C@@H](CCCNC(=N)N)C(=O)CF (stereo partly drawn) [Compound 180] (Cbz-[Ile(3ξ)]-Pro-Arg-CH2F) | 30 | 2440 | 
8 | COc1cccc(C(=O)N[C@H](C(=O)N2CCC[C@H]2C(=O)N[C@@H](CCCNC(=N)N)C(=O)CF)C(C)C)c1 [Compound 122] | 75 | 2000 | 
9 | CC(C)[C@H](NC(=O)c1ccc(C#N)cc1)C(=O)N1CCC[C@H]1C(=O)N[C@@H](CCCNC(=N)N)C(=O)CF [Compound 126] | 60 | 6660 | 
10 | N=C(N)NCCC[C@H](NC(=O)[C@@H]1CCCN1C(=O)[C@H](Cc1ccc(C(F)(F)F)cc1)NC(=O)c1ccc(Br)cc1)C(=O)CF [Compound 186] | 448 | 1370 | 
11 | N=C(N)NCCC[C@H](NC(=O)[C@@H]1CCCN1C(=O)[C@@H](NC(=O)OCc1ccccc1)c1ccccc1)C(=O)CF [Compound 104] (Cbz-[Phg]-Pro-Arg-CH2F) | 154 | 8050 | 
12 | CC(C)[C@H](NC(=O)OCc1cccc(Cl)c1)C(=O)N1CCC[C@H]1C(=O)N[C@@H](CCCNC(=N)N)C(=O)CF [Compound 169] | 22 |  | 
13 | CC(C)[C@H](NC(=O)c1ccc(Br)cc1F)C(=O)N1CCC[C@H]1C(=O)N[C@@H](CCCNC(=N)N)C(=O)CF [Compound 179] | 71 | 810 | 
14 | N=C(N)NCCC[C@H](NC(=O)[C@@H]1CCCN1C(=O)[C@@H](NC(=O)OCc1ccccc1)c1cccnc1)C(=O)CF [Compound 105] | 55 | 4260 | 
15 | N=C(N)NCCC[C@H](NC(=O)[C@@H]1C[C@@H](O)CN1C(=O)[C@@H](NC(=O)c1ccc(Br)cc1)C1CCCCC1)C(=O)CF [Compound 172] |  | 60 | 
16 | COc1ccccc1C(=O)N[C@H](C(=O)N1CCC[C@H]1C(=O)N[C@@H](CCCNC(=N)N)C(=O)CF)C(C)C [Compound 121] | 109 | 7290 | 
17 | CC(C)[C@H](NC(=O)c1ccc(OC(F)(F)F)cc1)C(=O)N1CCC[C@H]1C(=O)N[C@@H](CCCNC(=N)N)C(=O)CF [Compound 145] | 27 | 700 | 
18 | N=C(N)NCCC[C@H](NC(=O)[C@@H]1CCCN1C(=O)[C@H](Cc1ccccc1)NC(=O)OCc1ccccc1)C(=O)CF [Compound 182] | 76 | 2300 | 
19 | CC(C)[C@H](NC(=O)c1ccc(-c2ccccc2)cc1)C(=O)N1CCC[C@H]1C(=O)N[C@@H](CCCNC(=N)N)C(=O)CF [Compound 137] | 30 | 550 | 
20 | N=C(N)NCCC[C@H](NC(=O)[C@@H]1CCCN1C(=O)[C@@H](NC(=O)c1ccc(Br)cc1)C1CCCCC1)C(=O)CF [Compound 143] | 45 | 130 | 
21 | CC(C)[C@H](NC(=O)c1cccc(N2CCOCC2)c1)C(=O)N1CCC[C@H]1C(=O)N[C@@H](CCCNC(=N)N)C(=O)CF [Compound 131] | 58 | 14500 | 
22 | CC(C)[C@H](NC(=O)Nc1ccc(Cl)cc1)C(=O)N1CCC[C@H]1C(=O)N[C@@H](CCCNC(=N)N)C(=O)CF [Compound 164] | 62 | 780 | 
23 | CC(C)[C@H](NC(=O)c1csc(N2CCOCC2)n1)C(=O)N1CCC[C@H]1C(=O)N[C@@H](CCCNC(=N)N)C(=O)CF [Compound 128] | 111 | > 20000 | 
24 | CC(C)[C@H](NC(=O)OCc1ccccc1Cl)C(=O)N1CCC[C@H]1C(=O)N[C@@H](CCCNC(=N)N)C(=O)CF [Compound 170] (ClZ-Val-Pro-Arg-CH2F) | 27 |  | 
25 | CC(C)[C@H](NC(=O)c1ccc(Br)cc1)C(=O)N[C@@H](C)C(=O)N[C@@H](CCCNC(=N)N)C(=O)CF [Compound 178] | 38 |  | 
26 | CC(C)[C@H](NC(=O)c1ccc(Br)cc1)C(=O)N1C[C@H](C#N)C[C@H]1C(=O)N[C@@H](CCCNC(=N)N)C(=O)CF [Compound 177] | 28 |  | 
27 | CC(C)[C@H](NC(=O)c1ccc(Br)cc1)C(=O)N[C@@H](CO)C(=O)N[C@@H](CCCNC(=N)N)C(=O)CF [Compound 149] | 64 |  | 
28 | CC(C)c1ccc(C(=O)N[C@H](C(=O)N2CCC[C@H]2C(=O)N[C@@H](CCCNC(=N)N)C(=O)CF)C(C)C)cc1 [Compound 163] |  | 270 | 
29 | CC(C)[C@H](NC(=O)c1ccc(Br)s1)C(=O)N1CCC[C@H]1C(=O)N[C@@H](CCCNC(=N)N)C(=O)CF [Compound 138] |  | 1240 | 
30 | N=C(N)NCCC[C@H](NC(=O)[C@@H]1CCCN1C(=O)[C@H](Cc1cccnc1)NC(=O)c1ccc(Br)cc1)C(=O)CF [Compound 142] |  | 14100 | 

More lines, now with the values ahead:

Row | Ki (MALT1) [nM] | GI50 (OCI-LY3; Homo sapiens) [nM] | GI50 (OCI-LY3) [nM] | SMILES
31 | 118 | 770 |  | CC(C)[C@H](NC(=O)c1ccc(Br)cc1)C(=O)N1CC[C@H]1C(=O)N[C@@H](CCCNC(=N)N)C(=O)CF [Compound 176]
32 | > 200 |  |  | CN[C@H](C(=O)N1CCC[C@H]1C(=O)N[C@@H](CCCNC(=N)N)C(=O)CF)C(C)C [Compound 205] (H-[NMeV]-Pro-Arg-CH2F)
33 | 158 | 10500 |  | CC(C)[C@H](NC(=O)OCc1ccccc1)C(=O)N1CCC[C@@]1(C)C(=O)N[C@@H](CCCNC(=N)N)C(=O)CF [Compound 111] (Cbz-Val-[αMeP]-Arg-CH2F)
34 | 37 | 1330 |  | N=C(N)NCCC[C@H](NC(=O)[C@@H]1CCCCN1C(=O)[C@@H](NC(=O)OCc1ccccc1)C1CCCCC1)C(=O)CF [Compound 108] (Cbz-[Chg]-[Pip]-Arg-CH2F)
35 | 40 | 660 |  | CC(C)[C@H](NC(=O)c1ccccc1)C(=O)N1CCC[C@H]1C(=O)N[C@@H](CCCNC(=N)N)C(=O)CF [Compound 113] (Bz-Val-Pro-Arg-CH2F)
36 | 67 | 1240 |  | CC(C)[C@H](NC(=O)c1ccc(Cl)cc1)C(=O)N1CCC[C@H]1C(=O)N[C@@H](CCCNC(=N)N)C(=O)CF [Compound 136]
37 | 32 |  |  | CC(C)[C@H](NC(=O)OCc1ccc(Cl)cc1)C(=O)N1CCC[C@H]1C(=O)N[C@@H](CCCNC(=N)N)C(=O)CF [Compound 168]
38 | 146 | 8430 |  | N=C(N)NCCC[C@H](NC(=O)[C@@H]1CCCN1C(=O)[C@H](NC(=O)OCc1ccccc1)c1cccnc1)C(=O)CF [Compound 106]
39 | 54 | > 20000 |  | CC(=O)Nc1cccc(C(=O)N[C@H](C(=O)N2CCC[C@H]2C(=O)N[C@@H](CCCNC(=N)N)C(=O)CF)C(C)C)c1 [Compound 133] (Ac-[3Abz]VPR-CH2F)
40 |  | 500 |  | CC(C)[C@H](NC(=O)c1ccc(Br)c(C#N)c1)C(=O)N1CCC[C@H]1C(=O)N[C@@H](CCCNC(=N)N)C(=O)CF [Compound 146]
41 | 75 | > 20000 |  | CC(C)[C@H](NC(=O)c1ccc(N2CCOCC2)cc1)C(=O)N1CCC[C@H]1C(=O)N[C@@H](CCCNC(=N)N)C(=O)CF [Compound 127]
42 | 36 | 110 |  | CC(C)[C@H](NC(=O)/C=C/c1ccccc1)C(=O)N1CCC[C@H]1C(=O)N[C@@H](CCCNC(=N)N)C(=O)CF [Compound 154]
43 | 40 | 3880 |  | CC(C)[C@H](NC(=O)c1cnc2ccccc2c1)C(=O)N1CCC[C@H]1C(=O)N[C@@H](CCCNC(=N)N)C(=O)CF [Compound 156]
44 | 110 | 1700 |  | CC(C)[C@H](NC(=O)c1ccc2ccncc2c1)C(=O)N1CCC[C@H]1C(=O)N[C@@H](CCCNC(=N)N)C(=O)CF [Compound 158]
45 | 46 | 240 |  | N=C(N)NCCC[C@H](NC(=O)[C@H](CO)NC(=O)[C@@H](NC(=O)c1ccc(Br)cc1)C1CCCCC1)C(=O)CF [Compound 173]
46 |  |  | > 5000 | CC(C)[C@H](NC(=O)OCc1ccccc1)C(=O)N1CCC[C@H]1C(=O)N[C@@H](CCCNC1=NCCN1)C(=O)CF [Compound 201]
47 | 15 | 530 |  | CC(C)[C@H](NC(=O)c1cccc(OC(F)(F)F)c1)C(=O)N1CCC[C@H]1C(=O)N[C@@H](CCCNC(=N)N)C(=O)CF [Compound 148]
48 | 47 |  |  | CC(C)[C@H](NC(=O)c1ccc2ccccc2c1)C(=O)N1CCC[C@H]1C(=O)N[C@@H](CCCNC(=N)N)C(=O)CF [Compound 152]
49 |  | 3720 |  | CC(C)[C@H](NS(=O)(=O)c1ccc(Br)cc1)C(=O)N1CCC[C@H]1C(=O)N[C@@H](CCCNC(=N)N)C(=O)CF [Compound 130]
50 | 557 |  |  | CC(C)[C@H](NC(=O)Nc1cccc(Cl)c1)C(=O)N1CCC[C@H]1C(=O)N[C@H](CCCNC(=N)N)C(=O)CF [Compound 166]
51 | 122 |  |  | N=C(N)NCCC[C@H](NC(=O)[C@@H]1CCCN1C(=O)[C@H](CC1CCCCC1)NC(=O)c1ccc(Br)cc1)C(=O)CF [Compound 187]
